Experimental findings from patent US8664160B2, “Fungicidal mixtures” (BASF SE, priority 2005, dated 2014) are described below.

This experiment deals with bentgrass. The experiment can be described thus: Seed treatment of bentgrass: ground coverage by emerged plants. In kind it is in vivo. The settings on record: 20 g a.i./100 kg seed, greenhouse, humid conditions, 7 days after planting, untreated 10.8%. An excerpt: Seeds of bentgrass were seed-treated with the products and concentrations listed. Triticonazol and Pyraclstrobin were used as 200 g/l FS-formulation. Metalaxyl als a 17.7% LS-formulation. Treated sees were planted at the day of treatment and then kept under humid conditions in the greenhouse. 7 days after plating the ground coverage by emerged plants were estimated in percentage.

Regarding `COCC(=O)N(c1c(C)cccc1C)[C@H](C)C(=O)OC` [Metalaxyl-M, metalaxyl-M], the “% covered ground” value came out at 36.3%.
